Measurements as given in ChEMBL document CHEMBL4007454 (J Med Chem, 2017).

Key:
[1] = Efflux ratio of permeability […] in pig LLC-PK1 cells expressing rat MDR1; assay type: ADME, cell-based, Sus scrofa
[2] = target: T1, Leucine-rich repeat serine/threonine-protein kinase 2 (Homo sapiens, UniProt Q5S007, G2019S); assay: Inhibition of recombinant human GST-tagged LRRK2 (970 to 2527 residues) G2019S mutant expressed in baculovirus using fluorescein-ERM as substrate preincubated for 30 mins followed by substrate addition measured after 1 hr by TR-FRET assay
T1 sequence (Q5S007 whole entry G2019S, the tested form may be a part): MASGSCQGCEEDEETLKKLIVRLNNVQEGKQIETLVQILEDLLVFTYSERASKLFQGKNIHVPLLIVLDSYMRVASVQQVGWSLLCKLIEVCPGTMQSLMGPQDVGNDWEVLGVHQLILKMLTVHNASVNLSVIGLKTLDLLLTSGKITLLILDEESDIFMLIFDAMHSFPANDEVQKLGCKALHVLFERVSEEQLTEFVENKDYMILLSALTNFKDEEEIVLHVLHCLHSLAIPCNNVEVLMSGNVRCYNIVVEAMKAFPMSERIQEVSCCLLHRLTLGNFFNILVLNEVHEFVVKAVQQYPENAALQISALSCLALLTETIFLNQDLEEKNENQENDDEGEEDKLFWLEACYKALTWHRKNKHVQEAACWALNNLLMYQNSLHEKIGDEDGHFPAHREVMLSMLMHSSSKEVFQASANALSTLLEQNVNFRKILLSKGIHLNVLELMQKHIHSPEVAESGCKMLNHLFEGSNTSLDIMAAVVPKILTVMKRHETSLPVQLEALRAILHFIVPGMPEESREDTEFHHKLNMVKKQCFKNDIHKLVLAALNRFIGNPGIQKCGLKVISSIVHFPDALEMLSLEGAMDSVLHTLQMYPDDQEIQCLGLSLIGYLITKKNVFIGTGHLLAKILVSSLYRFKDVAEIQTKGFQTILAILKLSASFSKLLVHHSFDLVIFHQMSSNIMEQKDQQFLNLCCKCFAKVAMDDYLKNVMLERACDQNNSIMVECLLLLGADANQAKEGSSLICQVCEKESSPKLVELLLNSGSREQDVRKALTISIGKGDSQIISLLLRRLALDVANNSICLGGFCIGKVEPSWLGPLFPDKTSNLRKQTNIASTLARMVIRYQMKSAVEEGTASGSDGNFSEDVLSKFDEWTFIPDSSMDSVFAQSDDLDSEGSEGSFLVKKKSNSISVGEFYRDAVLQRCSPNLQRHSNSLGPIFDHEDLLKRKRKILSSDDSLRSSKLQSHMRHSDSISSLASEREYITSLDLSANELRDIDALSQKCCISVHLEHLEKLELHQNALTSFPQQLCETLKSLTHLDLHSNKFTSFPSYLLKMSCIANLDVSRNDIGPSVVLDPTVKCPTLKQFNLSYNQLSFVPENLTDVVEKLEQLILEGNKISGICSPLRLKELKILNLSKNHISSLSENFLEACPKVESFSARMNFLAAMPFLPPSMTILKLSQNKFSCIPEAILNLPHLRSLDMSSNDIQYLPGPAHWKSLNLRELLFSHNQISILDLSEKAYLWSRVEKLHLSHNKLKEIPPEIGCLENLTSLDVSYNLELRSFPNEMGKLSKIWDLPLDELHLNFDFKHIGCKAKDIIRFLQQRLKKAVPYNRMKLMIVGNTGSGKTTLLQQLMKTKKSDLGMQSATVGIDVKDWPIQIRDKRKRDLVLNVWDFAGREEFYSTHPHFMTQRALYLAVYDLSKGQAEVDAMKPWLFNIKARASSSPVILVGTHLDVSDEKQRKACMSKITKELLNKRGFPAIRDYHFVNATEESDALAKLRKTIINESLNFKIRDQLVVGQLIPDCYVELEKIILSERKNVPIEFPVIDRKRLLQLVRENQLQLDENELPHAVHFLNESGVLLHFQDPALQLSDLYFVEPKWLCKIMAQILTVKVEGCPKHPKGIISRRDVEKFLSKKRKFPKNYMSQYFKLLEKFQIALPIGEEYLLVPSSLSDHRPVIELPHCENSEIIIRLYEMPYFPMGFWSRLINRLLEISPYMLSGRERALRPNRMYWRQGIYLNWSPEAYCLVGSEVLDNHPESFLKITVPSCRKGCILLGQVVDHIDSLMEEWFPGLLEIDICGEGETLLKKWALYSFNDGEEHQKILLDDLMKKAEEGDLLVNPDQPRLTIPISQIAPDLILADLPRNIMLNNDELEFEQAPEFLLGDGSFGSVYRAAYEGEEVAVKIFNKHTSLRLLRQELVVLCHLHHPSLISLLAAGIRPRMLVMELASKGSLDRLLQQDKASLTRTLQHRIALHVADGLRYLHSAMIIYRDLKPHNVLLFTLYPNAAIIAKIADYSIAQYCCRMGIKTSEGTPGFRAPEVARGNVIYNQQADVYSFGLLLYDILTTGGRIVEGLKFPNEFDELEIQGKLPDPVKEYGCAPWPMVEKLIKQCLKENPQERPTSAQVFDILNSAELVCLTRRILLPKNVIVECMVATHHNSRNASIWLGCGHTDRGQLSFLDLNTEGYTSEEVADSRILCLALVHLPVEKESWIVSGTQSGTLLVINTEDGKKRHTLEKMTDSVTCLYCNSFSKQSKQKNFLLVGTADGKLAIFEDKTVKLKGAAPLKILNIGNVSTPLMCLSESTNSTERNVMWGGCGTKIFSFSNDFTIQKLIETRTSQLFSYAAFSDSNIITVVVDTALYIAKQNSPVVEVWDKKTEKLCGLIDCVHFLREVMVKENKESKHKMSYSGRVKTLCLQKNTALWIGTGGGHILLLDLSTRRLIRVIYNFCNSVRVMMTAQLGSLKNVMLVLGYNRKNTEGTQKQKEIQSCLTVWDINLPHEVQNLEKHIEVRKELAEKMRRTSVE

[3] = Efflux ratio of permeability […] in pig LLC-PK1 cells expressing human MDR1; assay type: ADME, cell-based, Sus scrofa
[4] = test system: MDR1 (human); assay: Apparent permeability in pig LLC-PK1 cells expressing human MDR1; assay type: ADME, cell-based, Sus scrofa
[5] = Intrinsic clearance in rat hepatocytes assessed per million cells at 1 uM after 180 mins by LC-MS/MS analysis; assay type: ADME, cell-based, Hepatocyte; conditions: read-out: CLH
[6] = Intrinsic clearance in human hepatocytes assessed per million cells at 1 uM after 180 mins by LC-MS/MS analysis; assay type: ADME, cell-based, Hepatocyte; conditions: read-out: CLH
[7] = target: T1, Leucine-rich repeat serine/threonine-protein kinase 2; assay: Inhibition of recombinant human GST-tagged LRRK2 (970 to 2527 residues) G2019S mutant expressed in baculovirus using fluorescein-ERM as substrate preincubated for 30 mins followed by substrate addition measured after 1 hr in presence of 5 mM ATP by TR-FRET assay
[8] = target: T1, Leucine-rich repeat serine/threonine-protein kinase 2; assay: Inhibition LRRK2 G2019S mutant Ser935 phosphorylation in human SH-SY5Y cells after 90 mins by Western blot analysis; assay type: cell-based
[9] = target: Leucine-rich repeat serine/threonine-protein kinase 2 (Homo sapiens, UniProt Q5S007); assay: Inhibition of wild type human recombinant LRRK2 expressed in baculovirus using fluorescein-ERM as substrate preincubated for 30 mins followed by substrate addition measured after 1 hr by TR-FRET assay
Chain of Leucine-rich repeat serine/threonine-protein kinase 2 (Homo sapiens, UniProt Q5S007) (Q5S007 whole entry): as the sequence (Q5S007 whole entry G2019S, the tested form may be a part) above, with S2019G counted along it

[10] = test system: Cerebrospinal fluid; assay: Drug level in rat Cerebrospinal fluid at 5 mg/kg, ip; assay type: ADME, organism-based; conditions: in vivo, read-out: Drug uptake
[11] = test system: Plasma; assay: Unbound plasma concentration in rat at 5 mg/kg, ip; assay type: ADME, organism-based; conditions: in vivo
[12] = target: Mitogen-activated protein kinase 1 (Homo sapiens) (UniProt P28482); assay: Inhibition of recombinant human full length GST-tagged ERK2 expressed in Escherichia coli at 1 uM
Chain of Mitogen-activated protein kinase 1 (Homo sapiens) (P28482 whole entry): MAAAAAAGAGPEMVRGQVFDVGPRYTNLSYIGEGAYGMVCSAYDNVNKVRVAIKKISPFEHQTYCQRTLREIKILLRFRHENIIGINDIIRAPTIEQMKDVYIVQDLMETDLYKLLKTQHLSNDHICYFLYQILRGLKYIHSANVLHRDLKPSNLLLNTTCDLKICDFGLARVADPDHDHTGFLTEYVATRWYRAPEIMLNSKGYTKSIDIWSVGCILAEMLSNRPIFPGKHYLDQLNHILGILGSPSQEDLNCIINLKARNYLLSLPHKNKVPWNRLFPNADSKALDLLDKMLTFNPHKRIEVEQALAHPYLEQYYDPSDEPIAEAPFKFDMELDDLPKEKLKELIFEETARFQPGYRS

[13] = AUC (0 to 8 hrs) in Han-Wistar rat at 2 mg/kg, iv measured after 2 to 480 mins by LC-MS/MS analysis; assay type: ADME, organism-based; design: time < 8 hr, dose 2 mg/kg, route intravenous; conditions: in vivo
[14] = target: T2, Dual specificity protein kinase TTK (Homo sapiens) (UniProt P33981); assay: Inhibition of recombinant human full length GST-tagged TTK expressed in baculovirus; conditions: concentration not given here
T2 sequence (whole entry): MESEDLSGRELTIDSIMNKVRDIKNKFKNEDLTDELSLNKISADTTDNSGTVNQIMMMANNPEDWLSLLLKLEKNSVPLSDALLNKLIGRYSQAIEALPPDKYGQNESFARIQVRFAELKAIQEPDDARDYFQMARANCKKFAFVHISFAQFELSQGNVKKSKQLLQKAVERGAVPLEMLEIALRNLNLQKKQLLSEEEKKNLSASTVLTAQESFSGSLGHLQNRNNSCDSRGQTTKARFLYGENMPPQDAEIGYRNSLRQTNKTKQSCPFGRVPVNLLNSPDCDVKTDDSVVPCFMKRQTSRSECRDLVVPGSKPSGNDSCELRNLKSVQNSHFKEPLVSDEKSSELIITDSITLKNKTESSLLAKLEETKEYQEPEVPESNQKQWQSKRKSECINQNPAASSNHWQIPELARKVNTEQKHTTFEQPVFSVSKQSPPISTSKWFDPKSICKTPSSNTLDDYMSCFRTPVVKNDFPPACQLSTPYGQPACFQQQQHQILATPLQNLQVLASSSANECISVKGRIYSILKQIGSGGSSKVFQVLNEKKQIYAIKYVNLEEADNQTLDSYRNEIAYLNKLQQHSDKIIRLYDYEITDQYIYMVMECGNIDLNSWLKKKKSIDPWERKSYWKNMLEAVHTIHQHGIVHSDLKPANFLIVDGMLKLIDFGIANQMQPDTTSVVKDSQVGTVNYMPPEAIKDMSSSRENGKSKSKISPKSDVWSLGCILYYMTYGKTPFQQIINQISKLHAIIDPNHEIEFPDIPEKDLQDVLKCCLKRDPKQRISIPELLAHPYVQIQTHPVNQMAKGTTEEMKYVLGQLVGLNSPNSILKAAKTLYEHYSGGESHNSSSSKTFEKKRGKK

[15] = Half life in Han-Wistar rat at 2 mg/kg, iv measured after 2 to 480 mins by LC-MS/MS analysis; assay type: ADME, organism-based; conditions: in vivo

N#Cc1ccc2[nH]nc(-c3ccnc(N4CCOCC4)c3)c2c1
Ratio [1]: 1.3
IC50 [2]: 64 nM
Ratio [3]: 0.7
Papp [4]: 34 ×10⁻⁶ cm/s

c1ccc2c(-c3cncc(N4CCOCC4)c3)n[nH]c2c1
Ratio [1]: 0.5
IC50 [2]: 256 nM
Ratio [3]: 0.4
Papp [4]: 38 ×10⁻⁶ cm/s

COc1ccc2[nH]nc(-c3ccnc(N4CCOCC4)c3)c2c1
hepatocyte CLint at 1 µM [5]: 28 µL/min/1e6 cells
hepatocyte CLint at 1 µM [6]: 23 µL/min/1e6 cells
Ratio [1]: 0.4
IC50 [2]: 15 nM
Ratio [3]: 0.2
Papp [4]: 33 ×10⁻⁶ cm/s

COCCNc1cc(-c2n[nH]c3ccccc23)ccn1
IC50 [2]: 98 nM

CC1(Oc2ccc3[nH]nc(-c4cc(N5CCOCC5)ncn4)c3c2)CC1
hepatocyte CLint at 1 µM [5]: 18 µL/min/1e6 cells
hepatocyte CLint at 1 µM [6]: 8 µL/min/1e6 cells
Papp [4]: 35 ×10⁻⁶ cm/s

c1ccc2c(-c3cc(N4CCOCC4)ncn3)n[nH]c2c1
hepatocyte CLint at 1 µM [5]: 30 µL/min/1e6 cells
hepatocyte CLint at 1 µM [6]: 9 µL/min/1e6 cells

Cn1cc(-c2ccc3[nH]nc(-c4ccnc(N5CCOCC5)c4)c3c2)cn1
hepatocyte CLint at 1 µM [5]: 31 µL/min/1e6 cells
hepatocyte CLint at 1 µM [6]: 7 µL/min/1e6 cells
Ratio [1]: 6.3
Ratio [3]: 1.5
Papp [4]: 38 ×10⁻⁶ cm/s

C[C@H]1CN(c2cc(-c3n[nH]c4ccc(OC5(C)CC5)cc34)ncn2)CCO1
hepatocyte CLint at 1 µM [5]: 26 µL/min/1e6 cells
hepatocyte CLint at 1 µM [6]: 7 µL/min/1e6 cells
Ratio [1]: 0.5
IC50 [7]: 76 nM
Ratio [3]: 0.5
Papp [4]: 27 ×10⁻⁶ cm/s
IC50 [8]: 3.8 nM

CC(C)Oc1ccc2[nH]nc(-c3ccnc(N4C[C@@H](F)[C@H](F)C4)c3)c2c1
hepatocyte CLint at 1 µM [5]: 39 µL/min/1e6 cells
hepatocyte CLint at 1 µM [6]: 25 µL/min/1e6 cells
Ratio [1]: 0.7
IC50 [7]: 128 nM
IC50 [2]: 6.6 nM
Ratio [3]: 0.4
Papp [4]: 31 ×10⁻⁶ cm/s
IC50 [8]: 341 nM

c1cc(-c2n[nH]c3ccc(OC4CC4)cc23)cc(N2CCOCC2)n1
hepatocyte CLint at 1 µM [5]: 32 µL/min/1e6 cells
hepatocyte CLint at 1 µM [6]: 37 µL/min/1e6 cells
Ratio [1]: 0.3
IC50 [2]: 41 nM
Ratio [3]: 0.3
Papp [4]: 31 ×10⁻⁶ cm/s

CC(C)Oc1ccc2[nH]nc(-c3ccnc(N4CCN(C)C(=O)C4)c3)c2c1
hepatocyte CLint at 1 µM [5]: 38 µL/min/1e6 cells
hepatocyte CLint at 1 µM [6]: 16 µL/min/1e6 cells
Ratio [1]: 15
IC50 [7]: 91 nM
Ratio [3]: 3.2
Papp [4]: 38 ×10⁻⁶ cm/s
IC50 [8]: 59 nM

CN(c1cccc(S(C)(=O)=O)c1)c1ccc2[nH]nc(-c3ccncc3)c2c1
IC50 [9]: 44 nM
concentration [10]: 36 nM
Cp(f) [11]: 42 nM

CC(C)Oc1ccc2[nH]nc(-c3ccnc(N4CCN(S(C)(=O)=O)CC4)c3)c2c1
hepatocyte CLint at 1 µM [5]: 32 µL/min/1e6 cells
hepatocyte CLint at 1 µM [6]: 7 µL/min/1e6 cells
Ratio [1]: 0.6
IC50 [7]: 14 nM
Ratio [3]: 0.4
Papp [4]: 29 ×10⁻⁶ cm/s
IC50 [8]: 83 nM

c1ccc2c(-c3ccncc3)n[nH]c2c1
IC50 [2]: 904 nM

CC(C)Oc1ccc2[nH]nc(-c3ccnc(N4CCOCC4)c3)c2c1
hepatocyte CLint at 1 µM [5]: 49 µL/min/1e6 cells
hepatocyte CLint at 1 µM [6]: 22 µL/min/1e6 cells
inhibition [12]: 41%
Ratio [1]: 0.7
AUC(0-t) at 8 h [13]: 1 µM·h
IC50 [2]: 0.7 nM
inhibition [14]: 91%
half-life [15]: 1 h
Ratio [3]: 0.5
Papp [4]: 30 ×10⁻⁶ cm/s
IC50 [8]: 43 nM

CC1(Oc2ccc3[nH]nc(-c4cc(N5CCN(S(C)(=O)=O)CC5)ncn4)c3c2)CC1
hepatocyte CLint at 1 µM [5]: 10 µL/min/1e6 cells
Ratio [1]: 12
IC50 [2]: 2.2 nM
Ratio [3]: 2.2
Papp [4]: 30 ×10⁻⁶ cm/s
IC50 [8]: 7.6 nM

CC(C)Oc1ccc2[nH]nc(-c3cc(N4CCOCC4)ncn3)c2c1
hepatocyte CLint at 1 µM [5]: 13 µL/min/1e6 cells
hepatocyte CLint at 1 µM [6]: 6 µL/min/1e6 cells
Ratio [1]: 0.4
Ratio [3]: 0.6
Papp [4]: 38 ×10⁻⁶ cm/s
IC50 [8]: 41 nM

C[C@@H]1CN(c2cc(-c3n[nH]c4ccc(OC5(C)CC5)cc34)ncn2)CCO1
hepatocyte CLint at 1 µM [5]: 15 µL/min/1e6 cells
hepatocyte CLint at 1 µM [6]: 7 µL/min/1e6 cells
Ratio [1]: 0.4
IC50 [7]: 13 nM
IC50 [2]: 2 nM
Ratio [3]: 0.3
Papp [4]: 28 ×10⁻⁶ cm/s
IC50 [8]: 5 nM

c1ccc(-c2n[nH]c3ccccc23)nc1
IC50 [2]: 6190 nM

c1cnnc(-c2ccc3[nH]nc(-c4ccnc(N5CCOCC5)c4)c3c2)c1
hepatocyte CLint at 1 µM [5]: 6 µL/min/1e6 cells
hepatocyte CLint at 1 µM [6]: 10 µL/min/1e6 cells
Ratio [1]: 38
Ratio [3]: 16
Papp [4]: 32 ×10⁻⁶ cm/s

c1ccc2c(-c3ccnc(N4CCOCC4)c3)n[nH]c2c1
Ratio [1]: 0.2
IC50 [2]: 12 nM
Ratio [3]: 0.3
Papp [4]: 19 ×10⁻⁶ cm/s

Nc1cc(-c2n[nH]c3ccc(Nc4ccccc4)cc23)ccn1
IC50 [9]: 728 nM

O=S(=O)(c1ccc2[nH]nc(-c3ccnc(N4CCOCC4)c3)c2c1)C1CC1
hepatocyte CLint at 1 µM [5]: 15 µL/min/1e6 cells
hepatocyte CLint at 1 µM [6]: 7.3 µL/min/1e6 cells
Ratio [1]: 44
Ratio [3]: 20
Papp [4]: 35 ×10⁻⁶ cm/s

CC(C)Oc1ccc2[nH]nc(-c3ccnc(N4CCC(n5cnnc5)CC4)c3)c2c1
hepatocyte CLint at 1 µM [5]: 19 µL/min/1e6 cells
hepatocyte CLint at 1 µM [6]: 2 µL/min/1e6 cells
Ratio [1]: 41
IC50 [7]: 69 nM
Ratio [3]: 40
Papp [4]: 46 ×10⁻⁶ cm/s
IC50 [8]: 194 nM

c1cncc(-c2n[nH]c3ccccc23)c1
IC50 [2]: 1230 nM

c1cc(-c2n[nH]c3ccc(C4CC4)cc23)cc(N2CCOCC2)n1
hepatocyte CLint at 1 µM [5]: 52 µL/min/1e6 cells
hepatocyte CLint at 1 µM [6]: 31 µL/min/1e6 cells
Ratio [1]: 0.1
IC50 [2]: 13 nM
Ratio [3]: 0.2
Papp [4]: 25 ×10⁻⁶ cm/s

CC(C)Oc1ccc2[nH]nc(-c3ccnc(N4CCN(C)CC4)c3)c2c1
hepatocyte CLint at 1 µM [5]: 36 µL/min/1e6 cells
hepatocyte CLint at 1 µM [6]: 7 µL/min/1e6 cells
Ratio [1]: 1.7
IC50 [2]: 0.8 nM
Ratio [3]: 0.6
Papp [4]: 27 ×10⁻⁶ cm/s
IC50 [8]: 52 nM
